In brackets after ≈: the same amount, converted by molar mass.
Tests used:
[1] = system: S. pneumoniae ATCC 51916; assay: MIC, S. pneumoniae; format: cell-based
[2] = system: S. aureus ATCC 13709; assay: MIC, antibacterial potency, S. aureus; format: cell-based
[3] = S. pneumoniae (Spn52), in µg/mL

Row | Structure (SMILES) | MIC Spn52 ([1]; S. pneumoniae) | MIC, SA ([2]; S. aureus) | MIC Spn52 [1, 3] | MIC, SA ([2]; S. aureus (SA), in µg/mL)
1 | CCc1[nH]c2nc(Sc3cnc4nccnc4c3)nc(N3CC(N(C)C(=O)OC(C)(C)C)C3)c2c1Cl.O=C(O)C(F)(F)F [700,601] | 2 µg/mL | ≤ 0.5 µg/mL |  | 
2 | CCc1[nH]c2nc(Oc3cccnc3)nc(Oc3cncnc3)c2c1Br.O=C(O)C(F)(F)F [700,621] | 8 µg/mL | 4 µg/mL |  | 
3 | CCOc1nc(Nc2nc(C(=O)O)cs2)nc2[nH]c(CC)c(Br)c12.O=C(O)C(F)(F)F [700,350] | 64 µg/mL | 32 µg/mL |  | 
4 | CCc1[nH]c2nc(Sc3cnc4nccnc4c3)nc(NCCNC(=O)OC(C)(C)C)c2c1Cl.O=C(O)C(F)(F)F [700,508] | 4 µg/mL | 2 µg/mL |  | 
5 | CCc1[nH]c2nc(Sc3nc(C(=O)O)cs3)nc(N3CCN(C(C)=O)CC3)c2c1Cl.O=C(O)C(F)(F)F [700,356] | > 64 µg/mL | > 64 µg/mL |  | 
6 | CCc1[nH]c2nc(Nc3cnc4c(c3)nnn4C(C)C)nc(OC)c2c1Br.O=C(O)C(F)(F)F [700,535] | 4 µg/mL | ≤ 0.5 µg/mL |  | 
7 | CCc1[nH]c2nc(Sc3cnc4nccnc4c3)nc(N3CC4CNCC4C3)c2c1Cl.O=C(O)C(F)(F)F (centres unmarked) [700,565] | 4 µg/mL | 2 µg/mL |  | 
8 | CCc1[nH]c2nc(Nc3cnc4c(c3)nnn4C(C)C)nc(N3CC(N)C3)c2c1Cl.O=C(O)C(F)(F)F.O=C(O)C(F)(F)F [700,527] | 8 µg/mL | 16 µg/mL |  | 
9 | CCc1[nH]c2nc(Sc3nc(C(=O)O)cs3)nc(NCCCn3ccnc3)c2c1Cl [700,323] | > 64 µg/mL | > 64 µg/mL |  | 
10 | Fc1ccc(Oc2nc(Nc3cccnc3)nc3[nH]cc(Br)c23)c(F)c1.O=C(O)C(F)(F)F [700,315] | 64 µg/mL | 16 µg/mL |  | 
11 | CCc1[nH]c2nc(Sc3cnc4ccoc4c3)nc(N3CCC(N)C3)c2c1Cl.O=C(O)C(F)(F)F (centres unmarked) [700,676] | 8 µg/mL | 4 µg/mL |  | 
12 | CCc1[nH]c2nc(Sc3cnc4nccnc4c3)nc(N3CCCNCC3)c2c1Cl.O=C(O)C(F)(F)F [700,569] | 4 µg/mL | 8 µg/mL |  | 
13 | CCc1[nH]c2nc(Sc3cccnc3)nc(NC[C@H](C)O)c2c1Cl.O=C(O)C(F)(F)F [700,273] | 16 µg/mL | 4 µg/mL |  | 
14 | CCc1[nH]c2nc(Sc3cnc4nccnc4c3)nc(N3CCNCC3)c2c1Cl.O=C(O)C(F)(F)F [700,791] |  |  | 16 | 64
15 | CCOc1nc(Sc2ccc(NCCCOC)nn2)nc2[nH]c(CC)c(Cl)c12 [700,326] | 32 µg/mL (≈ 75.7 µM) | > 64 µg/mL |  | 
16 | CCOc1nc(Nc2ccc3nccnc3c2)nc2[nH]c(CC)c(Br)c12.O=C(O)C(F)(F)F [700,443] | > 64 µg/mL | > 64 µg/mL |  | 
17 | CCc1[nH]c2nc(Sc3cc(OC)nc(OC)n3)nc(N3CC(O)C3)c2c1Cl.Cl.Cl [700,411] | > 64 µg/mL | > 64 µg/mL |  | 
18 | CCOc1nc(Sc2nc(C(=O)N[C@H]3CCOC3=O)co2)nc2[nH]c(CC)c(Br)c12 [700,294] | > 64 µg/mL | > 64 µg/mL |  | 
19 | CCOc1nc(Sc2cccnc2)nc2[nH]c(CC)c(Br)c12.O=C(O)C(F)(F)F [700,275] | 8 µg/mL | 1 µg/mL |  | 
20 | CCc1[nH]c2nc(Sc3cnc4ncc(=O)[nH]c4c3)nc(N3CC[C@@H](N)C3)c2c1Cl [700,712] | > 64 µg/mL | 8 µg/mL (≈ 18.1 µM) |  | 
21 | CCc1[nH]c2nc(Nc3cnc4c(c3)nnn4C(C)C)nc(N3CC(O)C3)c2c1Br.O=C(O)C(F)(F)F [700,482] | > 64 µg/mL | > 64 µg/mL |  | 
22 | CCc1[nH]c2nc(Sc3cnc4nccnc4c3)nc(N3CC(N4CCOCC4)C3)c2c1Cl.O=C(O)C(F)(F)F.O=C(O)C(F)(F)F [700,606] | 4 µg/mL | 2 µg/mL |  | 
23 | CCOc1nc(Sc2nc(C(=O)OC)c(C(C)C)s2)nc2[nH]c(CC)c(Cl)c12 [700,302] | > 64 µg/mL | 32 µg/mL (≈ 72.6 µM) |  | 
24 | CCOc1nc(Sc2nc(C(=O)O)c(C(C)C)s2)nc2[nH]c(CC)c(Br)c12 [700,303] | 32 µg/mL (≈ 67.9 µM) | 4 µg/mL (≈ 8.49 µM) |  | 
25 | CCOc1nc(Sc2cc(C(=O)NC3CC3)ccn2)nc2[nH]c(CC)c(Br)c12 [700,305] | > 64 µg/mL | > 64 µg/mL |  | 
26 | CCc1[nH]c2nc(Oc3cncnc3)nc(Oc3cncnc3)c2c1Cl.O=C(O)C(F)(F)F [700,466] | 16 µg/mL | 4 µg/mL |  | 

Continued, values first:

Row | MIC Spn52 ([1]; S. pneumoniae) | MIC, SA ([2]; S. aureus) | MIC Spn52 [1, 3] | MIC, SA ([2]; S. aureus (SA), in µg/mL) | Structure (SMILES)
27 | 4 µg/mL (≈ 8.83 µM) | 2 µg/mL (≈ 4.42 µM) |  |  | CCc1[nH]c2nc(Sc3cnc4nccnc4c3)nc(N3CC(C4(N)CC4)C3)c2c1Cl [700,707]
28 | > 64 µg/mL | 64 µg/mL (≈ 187 µM) |  |  | CCc1[nH]c2nc(Cc3cccnc3)nc(N3CC(N)C3)c2c1Cl [700,495]
29 |  |  | 8 | 4 | CCc1[nH]c2nc(Oc3cncnc3)nc(N3CC(N)C3)c2c1Br [700,877]
30 | > 64 µg/mL | > 64 µg/mL |  |  | CCc1[nH]c2nc(Sc3nc(C(=O)O)c(Cl)s3)nc(N3CC(O)C3)c2c1Br [700,391]
31 | 4 µg/mL (≈ 8.51 µM) | ≤ 0.5 µg/mL |  |  | CCc1[nH]c2nc(Oc3ccc4nccnc4c3)nc(Oc3ccc4nccnc4c3)c2c1Cl [700,613]
32 | 8 µg/mL (≈ 18.3 µM) | 1 µg/mL (≈ 2.29 µM) |  |  | CCCn1c(=O)cc(Sc2nc(N3CC(O)C3)c3c(Cl)c(CC)[nH]c3n2)[nH]c1=O [700,418]
33 | 1 µg/mL (≈ 1.98 µM) | ≤ 0.5 µg/mL |  |  | CCc1[nH]c2nc(Sc3cnc4nccnc4c3)nc(N3CC(NCc4cccnc4)C3)c2c1Cl [700,539]
34 | 1 µg/mL (≈ 2.04 µM) | ≤ 0.5 µg/mL |  |  | CCc1[nH]c2nc(Sc3cnc4nccnc4c3)nc(N3CC(NS(C)(=O)=O)C3)c2c1Cl [700,435]
35 | > 64 µg/mL | 32 µg/mL (≈ 59.4 µM) |  |  | CCc1[nH]c2nc(Sc3ccc4c(N5CC(N)C5)cc(C(=O)O)nc4c3)nc(N3CC[C@@H](N)C3)c2c1Cl [700,620]
36 |  |  | 64 | 32 | CCc1[nH]c2nc(Sc3ccc4c(N5CC[C@@H](N)C5)ncnc4c3)nc(N3CC[C@@H](N)C3)c2c1Cl [700,903]
37 | > 64 µg/mL | > 64 µg/mL |  |  | CCc1[nH]c2nc(SC)nc(CCCNCCN3CCOCC3)c2c1Br [700,334]
38 |  |  | <=0.5 | <=0.5 | CCc1[nH]c2nc(Sc3cnc4nccnc4c3)nc(N3C[C@@H]4[C@@H](N)[C@@H]4C3)c2c1Cl [700,816]
39 | 1 µg/mL (≈ 2.06 µM) | ≤ 0.5 µg/mL |  |  | CCc1[nH]c2nc(Sc3cnc4nccnc4c3)nc(N3CC(NC(=O)COC)C3)c2c1Cl [700,438]
40 | > 64 µg/mL | > 64 µg/mL |  |  | CCc1[nH]c2nc(Cl)nc(Oc3ccc4nccnc4c3)c2c1Cl [700,612]
41 |  |  | 32 | 16 | CCc1[nH]c2nc(Sc3cnc4nccnc4c3)nc(N3CCC(CN)CC3)c2c1Cl [700,829]
42 |  |  | 32 | 2 | CCc1[nH]c2nc(Sc3cnc4cccnc4c3)nc(N3C[C@@H](N)[C@@H](C(=O)OC)C3)c2c1Cl [700,873]
43 | 4 µg/mL (≈ 8.79 µM) | 2 µg/mL (≈ 4.4 µM) |  |  | CCc1[nH]c2nc(Sc3ccc4c(N)nc(C)nc4c3)nc(N3CC[C@@H](N)C3)c2c1Cl [700,717]
44 | 16 µg/mL (≈ 33.6 µM) | 2 µg/mL (≈ 4.2 µM) |  |  | CCc1[nH]c2nc(Oc3cnc4c(cnn4C)c3)nc(Oc3cnc4c(cnn4C)c3)c2c1Cl [700,614]
45 | 2 µg/mL (≈ 4.68 µM) | 1 µg/mL (≈ 2.34 µM) |  |  | CCc1[nH]c2nc(Sc3cnc4nccnc4c3)nc(N3CCC(N)C3)c2c1Cl (centres unmarked) [700,540]

Row | MIC Spn52 ([1]; S. pneumoniae) | MIC, SA ([2]; S. aureus) | MIC Spn52 [1, 3] | MIC, SA ([2]; S. aureus (SA), in µg/mL) | Structure (SMILES)
46 |  |  | 8 | 4 | CCc1[nH]c2nc(Oc3cccc(C#N)c3)nc(C(C)=O)c2c1Cl [700,893]
47 |  |  | >64 | 64 | CCc1[nH]c2nc(Sc3ccc4c(N)n[nH]c4c3)nc(N3CC(N)C3)c2c1Cl [700,850]
48 | > 16 µg/mL | > 16 µg/mL |  |  | CCc1nc2c(N3CC(N)C3)nc(Sc3cnc4c(N)nc(C)nc4c3)nc2[nH]1 [700,538]
49 |  |  | 8 | 2 | CCc1[nH]c2nc(Sc3cnc(N)nc3)nc(N3CC4C(N)C4C3)c2c1Cl (centres unmarked) [700,789]
50 | 2 µg/mL (≈ 4.7 µM) | 1 µg/mL (≈ 2.35 µM) |  |  | CCc1[nH]c2nc(Sc3cnc4cccnc4c3)nc(N3CC(NC)C3)c2c1Cl [700,713]
51 |  |  | >64 | >64 | CCc1[nH]c2nc(Oc3cncc(C#N)c3)nc(Oc3cccc(C(=O)O)c3)c2c1Cl [700,828]
52 | > 64 µg/mL | > 64 µg/mL |  |  | CCc1[nH]c2nc(SC)nc(CCC3OCCCO3)c2c1Br [700,332]
53 | 1 µg/mL (≈ 2.02 µM) | ≤ 0.5 µg/mL |  |  | CCc1[nH]c2nc(Sc3cnc4nccnc4c3)nc(N3CC(CNC(=O)C4CC4)C3)c2c1Cl [700,516]
54 | 32 µg/mL (≈ 59.6 µM) | 16 µg/mL (≈ 29.8 µM) |  |  | CCc1[nH]c2nc(Sc3ccc4cc(C(=O)N5CC[C@@H](N)C5)cnc4c3)nc(N3CC[C@@H](N)C3)c2c1Cl [700,695]
55 |  |  | 64 | 16 | CCc1[nH]c2nc(Sc3cnc(N)nc3)nc(N3CC4CNC4C3)c2c1Cl (centres unmarked) [700,790]
56 | 16 µg/mL (≈ 44.2 µM) | 4 µg/mL (≈ 11.1 µM) |  |  | CCc1[nH]c2nc(Sc3cncnc3)nc(N3CC(N)C3)c2c1Cl [700,574]
57 | 8 µg/mL (≈ 21.7 µM) | 1 µg/mL (≈ 2.72 µM) |  |  | CCOc1nc(Sc2cc(=O)[nH]c(=O)[nH]2)nc2[nH]c(CC)c(Cl)c12 [700,347, 6-(5-chloro-4-ethoxy-6-ethyl-7H-pyrrolo[2,3-d]pyrimidin-2-ylthio)pyrimidine-2,4(1H,3H)-dione]
58 | 1 µg/mL (≈ 2.01 µM) | ≤ 0.5 µg/mL |  |  | CCNC(=O)NCC1CN(c2nc(Sc3cnc4nccnc4c3)nc3[nH]c(CC)c(Cl)c23)C1 [700,491]
59 |  |  | <=0.5 | <=0.5 | CCc1[nH]c2nc(Sc3cnc4cccnc4c3)nc(N3C[C@@H]4[C@@H](N)[C@@H]4C3)c2c1Cl [700,817]
60 | 32 µg/mL (≈ 87.5 µM) | 4 µg/mL (≈ 10.9 µM) |  |  | CCc1[nH]c2nc(Cc3cccnc3)nc(Oc3cccnc3)c2c1Cl [700,479]
61 | 64 µg/mL (≈ 170 µM) | 16 µg/mL (≈ 42.5 µM) |  |  | CCc1[nH]c2nc(Sc3ccc[n+]([O-])c3)nc(N3CC(N)C3)c2c1Cl [700,562]
62 | > 64 µg/mL | > 64 µg/mL |  |  | CCc1[nH]c2nc(Sc3nc4ncccc4c(=O)[nH]3)nc(N3CC(O)C3)c2c1Br [700,358]
63 | 16 µg/mL (≈ 33.1 µM) | > 64 µg/mL |  |  | CCc1[nH]c2nc(Sc3cnc4[nH]c(C(F)(F)F)nc4c3)nc(N3CC[C@@H](N)C3)c2c1Cl [700,696]
64 | 8 µg/mL (≈ 14.8 µM) | 4 µg/mL (≈ 7.4 µM) |  |  | CCc1[nH]c2nc(Sc3ccc4c(N5CCNCC5)ccnc4c3)nc(N3CC(O)C3)c2c1Br [700,403]
